Columns and labels:
EcR-Usp complexes [1] = target: T1, EcR-Usp complexes (Drosophila melanogaster, UniProt P34021); experiment: Competitive displacement of 3H-Ponasterone A binding to extract of yeast co-expressing EcR and Usp; settings: unlabelled ligand, FIG. 4, read-out: IC50 for displacing 3H-Ponasterone binding
T1 construct: An immunoreactive polypeptide corresponding to the full EcR (100 kDa) was detected; ubiquitin (N, cleaved yes); made in house; host or cells: Saccharomyces cerevisiae strain BJ2168 (plasmids YEpEcR and YEpcUSP); unpurified cytosolic extract
T1 sequence (P34021 1-878): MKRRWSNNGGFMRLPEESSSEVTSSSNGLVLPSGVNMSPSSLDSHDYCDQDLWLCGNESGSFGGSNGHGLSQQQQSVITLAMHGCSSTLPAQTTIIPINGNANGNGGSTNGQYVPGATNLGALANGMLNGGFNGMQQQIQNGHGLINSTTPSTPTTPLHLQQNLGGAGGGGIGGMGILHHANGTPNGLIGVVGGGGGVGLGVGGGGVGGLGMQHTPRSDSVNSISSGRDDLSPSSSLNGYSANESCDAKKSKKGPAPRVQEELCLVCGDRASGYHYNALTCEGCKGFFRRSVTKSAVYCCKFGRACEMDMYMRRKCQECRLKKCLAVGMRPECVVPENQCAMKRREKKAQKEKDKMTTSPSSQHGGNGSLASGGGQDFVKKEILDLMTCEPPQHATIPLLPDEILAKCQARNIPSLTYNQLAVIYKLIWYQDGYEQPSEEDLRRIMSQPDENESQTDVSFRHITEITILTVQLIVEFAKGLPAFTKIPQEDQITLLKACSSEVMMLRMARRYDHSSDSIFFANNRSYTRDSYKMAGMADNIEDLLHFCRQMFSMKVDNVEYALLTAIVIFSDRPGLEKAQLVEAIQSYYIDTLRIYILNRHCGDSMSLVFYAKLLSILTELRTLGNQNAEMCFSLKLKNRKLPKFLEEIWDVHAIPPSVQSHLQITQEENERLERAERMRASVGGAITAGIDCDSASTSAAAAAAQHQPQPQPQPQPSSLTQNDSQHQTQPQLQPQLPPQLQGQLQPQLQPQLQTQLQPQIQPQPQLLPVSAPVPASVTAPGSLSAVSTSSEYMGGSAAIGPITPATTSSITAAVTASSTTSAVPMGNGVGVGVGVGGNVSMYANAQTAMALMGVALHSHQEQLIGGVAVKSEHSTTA
T1 sequence (P20153 1-508 partner): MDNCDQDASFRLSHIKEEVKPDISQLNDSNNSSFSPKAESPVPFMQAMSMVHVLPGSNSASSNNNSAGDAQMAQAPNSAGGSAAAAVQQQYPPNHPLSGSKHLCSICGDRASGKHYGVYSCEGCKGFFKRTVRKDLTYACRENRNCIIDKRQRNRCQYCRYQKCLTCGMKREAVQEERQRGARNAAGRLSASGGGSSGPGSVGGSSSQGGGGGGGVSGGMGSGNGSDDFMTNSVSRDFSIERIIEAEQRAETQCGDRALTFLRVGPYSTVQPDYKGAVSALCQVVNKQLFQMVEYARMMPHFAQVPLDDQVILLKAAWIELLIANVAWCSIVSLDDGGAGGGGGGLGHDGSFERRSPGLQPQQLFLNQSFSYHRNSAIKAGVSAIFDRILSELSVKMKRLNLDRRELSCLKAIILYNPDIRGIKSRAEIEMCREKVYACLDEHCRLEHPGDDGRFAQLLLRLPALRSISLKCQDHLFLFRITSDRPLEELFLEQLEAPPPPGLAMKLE
Experimental: (§1) Overnight cultures of yeast strains expressing EcR, Usp, EcR+Usp, and EcR+RxR were inoculated into 1 liter of selective medium and incubated for 16 h at 30° C. In strains expressing Usp, cupric sulfate was added to a final concentration of 100 μM and the culture incubated an additional 4 h at 30° C. The cells were harvested by centrifugation and washed twice in cold TEDG buffer (10 mM Tris-HCl, pH 8.0, 0.1 mM EDTA, 2 mM dithiothreitol, 10% glycerol). The cell pellet was then resuspended in TEDG buffer containing 0.4M NaCl, and vortexed with glass beads in ten 30-second bursts. The resulting homogenate is centrifuged at 1000×g for 10 min, after which the supernatant is centrifuged at 100,000×g for 30 min. The final supernatant is collected, diluted to 12.5 mg/ml protein with TEDG buffer, and stored in aliquots at −80° C.
(§2) The following components were added to each reaction mixture:
(§3) (i) 40 μl yeast extract (12.5 mg/ml protein);
(ii) 20 μl ^3H-Ponasterone A (New England Nuclear, 195 Ci/mmol; 20 μl contains 100,000 cpm and a final concentration of 2.5 nM in the reaction mixture);
(iii) 120 μl TEDG buffer containing the following protease inhibitors: PMSF (Sigma Chemical Co.), 0.15 mg/ml; leupeptin (Bachem), 0.04 mg/ml; chymostatin (Bachem), 0.03 mg/ml; and pepstatin (Sigma), 0.01 mg/ml; and
(iv) 20 μl test sample, 25 μM Muristerone A, or control diluent.
(§4) The reactions were incubated for 1 h at room temperature or at least 12 h at 4° C. Protein-bound and -free radioactivity were separated by hydroxylapatite chromatography or by filtration, the individual samples suspended in scintillation fluid and the radioactivity determined by scintillation counting.
Specificity of hormone binding to the yeast extract was measured by testing the ability of four known (unlabelled) EcR ligands to displace 3H-Ponasterone binding.
The methods described in Example 2 above were used to test a collection of natural products for EcR binding activity (FIG. 7). The products were tested at 1 and 10 μg/ml. Of 92 compounds tested, one (present in well H8) displaced 62% of ^3H-Ponasterone A binding activity at 10 μg/ml.
A chemical library containing 6592 samples was also screened using the methods described above. Each sample was present at 10 μg/ml. Compounds that displaced at least 75% of the radiolabel were scored as positives. These compounds were then used to generate competitive binding curves as described above.

[2] = cited from earlier work
[3] = cited from earlier work; remark: listed apart in the source
EcR-Usp complexes [4] = target: T1, EcR-Usp complexes; experiment: Saturation and Scatchard analysis of 3H-Ponasterone A binding to extract of yeast co-expressing EcR and Usp; settings: extract from yeast strain co-expressing EcR and Usp
Experimental: as §1, §2, §3
(ii) 20 μl ^3H-Ponasterone A (New England Nuclear, 195 Ci/mmol; 20 μl contains 100,000 cpm and a final concentration of 2.5 nM in the reaction mixture); […]
as §4, with “counting. […]” for “counting.”

For 20-hydroxyecdysone, the IC50 (EcR-Usp complexes [1]) was 500 nM.

For `CC(C)(C)N(NC(=O)c1ccccc1)C(=O)c1ccccc1` [RH5849], the “fold less active in bioassays compared with 20-hydroxyecdysone” value [2] is given as “at least 100 fold”, the IC50 (EcR-Usp complexes [1]) is given as 12000 nM and the “fold less active in binding assays compared with 20-hydroxyecdysone” value [3] is given as “at least 30 fold”.

Compound `CC(C)CC[C@@H](O)[C@](C)(O)[C@H]1CC[C@@]2(O)C3=CC(=O)[C@]4(O)C[C@@H](O)[C@@H](O)C[C@]4(C)[C@H]3[C@H](O)C[C@]12C` [muristerone A] has an IC50 (EcR-Usp complexes [1]) of 15 nM.

`CC(C)CC[C@@H](O)[C@](C)(O)[C@H]1CC[C@@]2(O)C3=CC(=O)[C@@H]4C[C@@H](O)[C@@H](O)C[C@]4(C)[C@H]3CC[C@]12C` [ponasterone A] gave an IC50 (EcR-Usp complexes [1]) of 2 nM.

^3H-Ponasterone A showed a Kd (EcR-Usp complexes [4]) of 1.8 nM.

Reference: patent US20020164637A1, “SCREEN FOR ECDYSONE RECEPTOR LIGANDS” (priority 1996, published 2002)
